The record followed here is ChEMBL document CHEMBL4390697, “Ginnalin B induces differentiation markers and modulates the proliferation/differentiation balance via the upregulation of NOTCH1 in human epidermal keratinocytes” (Bioorg Med Chem, 2019).

Each structure is given as a SMILES string. Calls of active or inactive are those of the source. The rule behind the calls is not given here.

Data set [1] can be described thus: Inhibition of keratin-10 expression in human PHK160b cells at 50 uM incubated for 48 hrs by quantitative RT-PCR analysis relative to untreated control. The format is functional.
Data set [2] in a line: (§1) Induction of keratin-10 expression in human PHK160b cells at 50 uM incubated for 48 hrs by quantitative RT-PCR analysis relative to untreated control. The format is functional.
Data set [3] is filed under the species Homo sapiens. Described as §1. The format is functional.
Data set [4] is described as follows: Cytotoxicity against human PHK160b cells assessed as reduction in cell growth at 100 uM incubated up to 96 hrs by MTT assay. The format is cell-based.
Data set [5] can be described thus: Cytotoxicity against human PHK160b cells assessed as reduction in cell viability incubated for 48 hrs by LDH release assay. The class given is cell-based.
Data set [6] in a line: Cell cycle arrest in human PHK160b cells assessed as accumulation at G0/G1 phase at 50 uM incubated for 48 hrs by propidium iodide staining-based flow cytometry. The format is functional.
The nature of data set [7]: Cell cycle arrest in human PHK160b cells assessed as accumulation at G2/M phase at 50 uM incubated for 48 hrs by propidium iodide staining-based flow cytometry. The format is functional.
The nature of data set [8]: Induction of apoptosis in human PHK160b cells assessed as induction of multiple fragmented segregated bodies at 100 uM incubated for 48 hrs Hoechst 33,342 staining based fluorescent microscopy. The format is cell-based.
The nature of data set [9]: Cytotoxicity against human PHK160b cells assessed as reduction in cell viability at 10 to 1000 uM incubated for 48 hrs by LDH release assay. The class given is cell-based.
Data set [10] can be described thus: Cytotoxicity against human PHK160b cells assessed as reduction in cell viability at 100 uM incubated for 24 hrs by MTT assay. The class given is cell-based. For orientation: Tetrazolium dyes change colour on reduction, which living cells bring about.
Data set [11] can be described thus: Induction of keratin-1 expression in human PHK160b cells at 100 uM incubated for 48 hrs by quantitative RT-PCR analysis relative to untreated control. The class given is functional.
Data set [12] has as its system Zone of skin. Briefly: Induction of keratinocyte differentiation in human EPI-212 EpiDerm skin model assessed as increase in filaggrin expression at 100 uM incubated for 7 days by DAB based immunohistochemical staining analysis (Rvb= 20%). The class given is functional.
Data set [13] in a line: Cell cycle arrest in human PHK160b cells assessed as increase in expression of NOTCH1 at 100 uM incubated for 72 hrs by RT-PCR method relative to control. The class given is functional.
Data set [14] in a line: Cell cycle arrest in human PHK160b cells assessed as accumulation at G2/M phase at 100 uM incubated for 48 hrs by propidium iodide staining-based flow cytometry. The class given is functional. (Flow cytometry measures light scatter and fluorescence of single cells or particles in a stream.)
The species named for data set [15] is Homo sapiens. Put plainly: Induction of keratin-10 expression in human PHK160b cells incubated for 48 hrs by quantitative RT-PCR analysis relative to untreated control. The format is functional, cell-based.
Data set [16] relates to Zone of skin. Put plainly: Induction of keratinocyte differentiation in human EPI-212 EpiDerm skin model assessed as increase in keratin-10 expression at 100 uM incubated for 7 days by DAB based immunohistochemical staining analysis (Rvb= 35.8%). The format is functional.
The nature of data set [17]: Induction of filaggrin expression in human PHK160b cells at 100 uM incubated for 48 hrs by quantitative RT-PCR analysis relative to untreated control. The format is functional.
Data set [18] is filed under the species Homo sapiens. Briefly: Induction of keratin-1 expression in human PHK160b cells incubated for 48 hrs by quantitative RT-PCR analysis relative to untreated control. The format is functional, cell-based.
A short description of data set [19]: Cytotoxicity against human PHK160b cells assessed as reduction in cell growth at 100 uM incubated for 24 to 96 hrs by MTT assay. The format is cell-based.
The species entered for data set [20] is Homo sapiens. Put plainly: Cell cycle arrest in human PHK160b cells assessed as decrease in expression of cyclin E incubated for 72 hrs by western blot method. The format is functional, cell-based.
Data set [21] is filed under the species Homo sapiens. Put plainly: Cell cycle arrest in human PHK160b cells assessed as decrease in expression of cyclin D1 incubated for 72 hrs by western blot method. The format is functional, cell-based. Background: Immunoblotting shows a protein as a band on a membrane.
A short description of data set [22]: Cell cycle arrest in human PHK160b cells assessed as increase in expression of p21 at 0 to 100 uM incubated for 72 hrs by RT-PCR method. The class given is functional.
Data set [23] can be described thus: Cell cycle arrest in human PHK160b cells assessed as accumulation at G0/G1 phase at 100 uM incubated for 48 hrs by propidium iodide staining-based flow cytometry. The format is functional.
For data set [24], the species on record is Homo sapiens. Put plainly: Induction of filaggrin expression in human PHK160b cells incubated for 48 hrs by quantitative RT-PCR analysis relative to untreated control. The format is functional, cell-based.
A short description of data set [25]: Induction of keratin-10 expression in human PHK160b cells at 100 uM incubated for 48 hrs by quantitative RT-PCR analysis relative to untreated control. The format is functional.
For data set [26], the species on record is Homo sapiens. Briefly: Cell cycle arrest in human PHK160b cells assessed as increase in expression of p21 incubated for 72 hrs by western blot method. The format is functional, cell-based.
The species named for data set [27] is Homo sapiens. Briefly: Cell cycle arrest in human PHK160b cells assessed as increase in expression of NOTCH 1 at 50 to 100 uM incubated for 72 hrs by western blot method. The class given is functional, cell-based.

`O=C(OC[C@H]1OC[C@H](OC(=O)c2cc(O)c(O)c(O)c2)[C@@H](OC(=O)c2cc(O)c(O)c(O)c2)[C@@H]1OC(=O)c1cc(O)c(O)c(O)c1)c1cc(O)c(O)c(O)c1`: in data set [1], the “fold change (FC)” value is on record as 0.64.

Take `O=C(OC[C@H]1OC[C@H](O)[C@@H](O)[C@@H]1OC(=O)c1cc(O)c(O)c(O)c1)c1cc(O)c(O)c(O)c1`: the “fold change (FC)” value in [2] stood at 2.18.

Take `COc1cc(C(=O)OC[C@H]2OC[C@H](O)[C@@H](O)[C@@H]2O)cc(OC)c1OC`: the outcome in the data set listed under Homo sapiens [3] was inactive.

`O=C(OC[C@H]1OC[C@H](O)[C@@H](O)[C@@H]1O)c1ccccc1`: the result in the data set listed under Homo sapiens [3] was inactive.

As to `O=C(O[C@H]1CO[C@H](CO)[C@@H](O)[C@@H]1O)c1cc(O)c(O)c(O)c1`, the outcome in the data set listed under Homo sapiens [3] was Active.

Take `O=C(O[C@H]1[C@H](O)[C@@H](CO)OC[C@@H]1O)c1cc(O)c(O)c(O)c1`: the result in the data set filed under Homo sapiens [3] was Active.

Turning to `O=C(O[C@H]1[C@H](O)[C@@H](O)CO[C@@H]1CO)c1cc(O)c(O)c(O)c1`, the outcome in the data set listed under Homo sapiens [3] was Active.

`OC[C@H]1OC[C@H](O)[C@@H](O)[C@@H]1O` [1,5-Anhydrosorbitol]: the outcome in the data set filed under Homo sapiens [3] was inactive. The Activity entry in [4] was “Non-Toxic”.

In the case of `COc1cc2c(c(OC)c1OC)-c1ccc(OC)c(=O)cc1[C@@H](NC(C)=O)CC2` [COLCHICINE], the Activity result was “Dose-dependent effect” in [5], 18% in data set [6], 74.6% in data set [7] and “Toxic” in data set [8].

In the case of `O=C(OC[C@H]1OC[C@H](O)[C@@H](O)[C@@H]1O)c1cc(O)c(O)c(O)c1` [GINNALIN B], the Activity entry was “Non-Toxic” in data set [9]; “Non-Toxic” in data set [10]; 56.6% in the data set on Zone of skin [12]; 20% in data set [14]; “Dose-dependent effect” in the data set listed under Homo sapiens [15]; 42.4% with Zone of skin [16]. The Activity entry is “Dose-dependent effect” in the data set filed under Homo sapiens [18]; “Non-Toxic” in [8]; “Toxic” in data set [19]; “Dose-dependent effect” in the data set listed under Homo sapiens [20]; “Dose-dependent effect” in the data set listed under Homo sapiens [21]; 66% in [23]. For the same compound, the Activity entry in the data set listed under Homo sapiens [24] and in the data set filed under Homo sapiens [26] was “Dose-dependent effect” each time. Further, the “fold change (FC)” value was determined as 2.9 in data set [11]; 1.9 in data set [13]; 5.2 in data set [17]; 1.9 in data set [2]; 1.4 in data set [22]; 1.7 in [25]. Also, the result in the data set filed under Homo sapiens [27] was Active.

Turning to `O=C(O[C@H]1[C@H](O)[C@@H](OC(=O)c2cc(O)c(O)c(O)c2)CO[C@@H]1CO)c1cc(O)c(O)c(O)c1` [MAPLEXIN D], in [2], the “fold change (FC)” value is 2.2.
